According to patent publication US20220039384A1, “SELECTIVE WEED CONTROL WITH HALAUXIFEN OR 4-AMINO-3-CHLORO-5-FLUORO-6-(4-CHLORO-2-FLUORO-3-METHOXYPHENYL) PYRIDINE-2-CARBOXYLIC ACID OR DERIVATIVES THEREOF IN VINEYARDS OR PERENNIAL CROPS” (Corteva Agriscience LLC, priority 2013, published 2022):

What was measured:
[1] = tested on: AGRRE (Agropyron repens, quackgrass); assay: Field trial, post-emergence directed spring application (April), California vineyards: visual weed control; format: in vivo; conditions: 35 g ai/ha
Excerpt: (§1) As used herein, selective pre- and post-emergence control of undesirable vegetation means preventing, reducing, killing, or otherwise adversely modifying the development of the undesirable vegetation in the presence of crop plants with limited adverse effect on the crop plants. For example, a broadleaf weed control of 80% (rated visually) with crop injury of less than or equal to 20% (rated visually) would constitute selective control. In some embodiments the adverse effect on crop plants is limited to less than 10% visually rated crop injury. Visual crop injury is a composite rating accounting for all phytotoxic effects including chlorosis, necrosis, growth inhibition, epinasty, delays in maturity and seed or fruit deformity. Visual weed control is a composite rating accounting for reductions in pest plant biomass and/or stand reduction.
(§2) Small plot research experiments were conducted in Fresno, Calif., USA to evaluate the pre-emergence and post-emergence herbicidal weed control activity and the vines crop tolerance to pre-emergence and post-emergence application of Compound I and Compound II to the weeds. Application water volume of 100 to 187 liters per hectare (L/ha) was used for all experiments. All treatments were applied with a standard small plot carbon dioxide (CO2) backpack sprayer. All treatments were tank-mixed with Crop Oil Concentrate (COC), a well known adjuvant, at 2.34 L/ha. Experimental emulsifiable concentrate (EC) formulations were used for Compounds I and II. The dimethylammonium (DMA) salt of glyphosate was used in all trials. Pindar® GT is a commercial formulation containing a pre-mix of penoxsulam+oxyfluorfen (10+476 grams of active ingredient per liter (g ai/L), respectively). Vine crop stage was dormant (no leaves on the vines during the winter) or early spring growth at the time of Compound I or Compound II application. Generally, weeds were not emerged for the pre-emergence treatments or were at the two to six-leaf stage at the time of the post-emergence herbicide application.
(§3) Tables 1, 2 and 6 provide weed control results from pre-emergence applications of Compounds I and/or II prior to weed emergence; Tables 4, 7 and 8 provide weed control results from post-emergence applications of Compounds I and/or II applied to actively growing weeds; Tables 3 and 5 provide vine response data from pre-emergence and post-emergence applications of Compound I respectively.

[2] = tested on: MALPA (Malva parviflora, smallflower malva); assay: as above; format: in vivo; conditions: 35 g ai/ha
Excerpt: as §1, §2, §3

[3] = tested on: PANCA (Panicum capillare, witchgrass); assay: as above; format: in vivo; conditions: 35 g ai/ha
Excerpt: as §1, §2, §3

[4] = tested on: EROCI (Erodium cicutarium, redstem filaree); assay: as above; format: in vivo; conditions: 35 g ai/ha
Excerpt: as §1, §2, §3

[5] = tested on: ERIBO (Conyza bonariensis, hairy fleabane); assay: as above; format: in vivo; conditions: 35 g ai/ha
Excerpt: as §1, §2, §3

[6] = tested on: SETFA (Setaria faberi, giant foxtail); assay: as above; format: in vivo; conditions: 35 g ai/ha
Excerpt: as §1, §2, §3

VITSS (Vitis spp, grape) = conditions: in vivo
Procedure: as §2, with “herbicide application. […]” for “herbicide application.”

[7] = tested on: grapevines and perennial crops; assay: Crop safety, general statement; format: in vivo; conditions: post-emergence application rates of ≤20 g ae/ha; dormant application or spring application directed under the crops
Excerpt: (§4) Additional examples of application rates for Compound I as a pre-emergence and post-emergence application include 0.25 to 50 g ae/ha, 0.25 to 45 g ae/ha, 0.25 to 40 g ae/ha, 0.25 to 35 g ae/ha, 0.25 to 30 g ae/ha, 0.25 to 25 g ae/ha, 0.25 to 20 g ae/ha, 0.25 to 15 g ae/ha, 0.25 to 10 g ae/ha, 0.25 to 5 g ae/ha, 2.5 to 50 g ae/ha, 5 to 50 g ae/ha, 10 to 50 g ae/ha, 15 to 50 g ae/ha, 20 to 50 g ae/ha, 25 to 50 g ae/ha, 30 to 50 g ae/ha, 35 to 50 g ae/ha, 40 to 50 g ae/ha, 45 to 50 g ae/ha, 5 to 40 g ae/ha, 10 to 40 g ae/ha, 15 to 40 g ae/ha, 20 to 40 g ae/ha, 25 to 40 g ae/ha, 30 to 40 g ae/ha, 35 to 40 g ae/ha, 2.5 to 35 g ae/ha, 2.5 to 30 g ae/ha, 2.5 to 25 g ae/ha, 2.5 to 20 g ae/ha, 2.5 to 15 g ae/ha, 2.5 to 10 g ae/ha, 2.5 to 5 g ae/ha, 5 to 35 g ae/ha, 10 to 30 g ae/ha, 15 to 25 g ae/ha, and 15 to 20 g ae/ha. Further examples of application rates for Compound I as a pre-emergence and post-emergence application include 0.25 g ae/ha, 0.5 g ae/ha, 0.75 g ae/ha, 1 g ae/ha, 1.25 g ae/ha, 1.5 g ae/ha, 1.75 g ae/ha, 2 g ae/ha, 2.25 g ae/ha, 2.5 g ae/ha, 3 g ae/ha, 4 g ae/ha, 5 g ae/ha, 6 g ae/ha, 7 g ae/ha, 8 g ae/ha, 9 g ae/ha, 10 g ae/ha, 12 g ae/ha, 14 g ae/ha, 16 g ae/ha, 18 g ae/ha, 20 g ae/ha, 22 g ae/ha, 24 g ae/ha, 26 g ae/ha, 28 g ae/ha, 30 g ae/ha, 32 g ae/ha, 34 g ae/ha, 36 g ae/ha, 38 g ae/ha, 40 g ae/ha, 42 g ae/ha, 44 g ae/ha, 46 g ae/ha, 48 g ae/ha, and 50 g ae/ha. […]

[8] = tested on: commercially relevant broadleaf and grass weeds; assay: Pre- and post-emergence weed control, general statement; format: in vivo; conditions: application rate of 2.5 to 50 g ai/ha; pre-emergence or post-emergence application
Excerpt: as §4

| SMILES | % Visual Control 60 DAA AGRRE [1] [%] | % Visual Control 60 DAA MALPA [2] [%] | % Visual Control 60 DAA PANCA [3] [%] | % Visual Control 60 DAA EROCI [4] [%] | % Visual Control 60 DAA ERIBO [5] [%] | % Visual Control 60 DAA SETFA [6] [%] | VITSS 60 DAA Node Count (VITSS (Vitis spp, grape)) | VITSS 60 DAA Vine Length (cm) (VITSS (Vitis spp, grape)) | crop injury to grapevines and perennial crops [7] | efficacy on commercially relevant broadleaf and grass weeds [8] |
| --- | --- | --- | --- | --- | --- | --- | --- | --- | --- | --- |
| COc1cnc(OC)n2nc(NS(=O)(=O)c3c(OCC(F)F)cccc3C(F)(F)F)nc12 [Penoxsulam, reference compound] | 87 | 85 | 85 | 87 | 85 | 97 | 20 | 89 |  |  |
| COc1c(Cl)ccc(-c2nc(C(=O)O)c(Cl)c(N)c2F)c1F [Compound II, 4-amino-3-chloro-5-fluoro-6-(4-chloro-2-fluoro-3-methoxyphenyl)pyridine-2-carboxylic acid] |  |  |  |  |  |  |  |  | little to no crop injury | highly efficacious |
